Reference: paper PMC6891756, “Synthesis and Biological Evaluation of Novel Aminochalcones as Potential Anticancer and Antimicrobial Agents” (Molecules, 2019)
≈ marks a conversion by molar mass, not a printed value.

How the values were obtained:
[1] = tested on: Staphylococcus aureus DSM799; assay: MIC evaluation (broth method), S. aureus; type: cell-based; settings: 48–72 h, read-out: Minimal inhibitory concentration S. aureus
Method: (§1) Sterile 96-well microtiter plates (Sarstedt) with nutrient broth (for bacteria) (Biocorp) or YM medium (for yeast and filamentous fungi) were inoculated with a standardized cell suspension of bacteria and yeast or fungal spores of 10^5 cell·mL^−1, and supplemented with aminochalcones dissolved in DMSO. […] All analysis were conducted in triplicates. The plates were incubated at 30 °C (bacteria and yeast) or 25 °C (filamentous fungi) for 48–72 h. The results were measured with the Spark® Multimode Microplate Reader (Tecan, Männedorf, Switzerland) at a 560 nm wavelength. The minimal inhibitory concentration was defined as the lowest concentration of a tested compound that completely restricted the growth of the microorganism. In order to verify the obtained results, microbial cultures subjected to each concentration of aminochalcone were inoculated onto nutrient agar or YM plates and incubated as described above. The lack of growth on agar plate was a confirmation of the MIC of the tested compound. The resulting MIC values were compared with the reference substances: oxytetracycline (against bacteria), cycloheximide (against yeast) and nystatin (against fungi) (Sigma Aldrich).

[2] = tested on: Staphylococcus aureus DSM799; assay: Microbial growth curve screening, S. aureus; type: cell-based; settings: 0.1% (w/v); for ∆OD S. aureus: OD at 560 nm, control 1.67; for Lag-phase S. aureus: control 2.5 h
Method: (§2) The antimicrobial screening tests were performed on two strains of bacteria: E. coli ATCC10536 and S. aureus DSM799, strain of yeast C. albicans DSM1386 and three strains of fungi: F. linii KB-F1, A. alternata CBS1526 and A. niger DSM1957. All microorganisms were obtained from the collection of the Faculty of Biotechnology and Food Microbiology, Wrocław University of Environmental and Life Sciences. The bacteria were cultured in nutrient broth (Biocorp, Warsaw, Poland), yeast and fungi in YM medium (3 g yeast extract, 3 g malt extract, 5 g bacteriological peptone and 10 g of glucose dissolved in 1 L of distilled water). The tests were carried out in 100-well microtiter plates. To each well 280 μL of culture medium, 10 μL of microorganism suspension and 10 μL of aminochalcone (1–18) dissolved in dimethyl sulfoxide (3% (w/v)) were added. The final concentration of the tested compound (1–18) was 0.1% (w/v). Each experiment were performed in 3 replications. The optical density of the cell suspension was measured on Bioscreen C (Automated Growth Curve Analysis System Lab System, Vantaa, Finland) at 560 nm automatically, at regular intervals of 30 min for 2–3 days. Cell cultures were maintained at 28 °C on a continuous shaker. To prepare the growth curves for each strain, the mean values of the absorbance in a function of time were used. The resulting antimicrobial activity was expressed as the increase of optical density (ΔOD) and was compared to that of the control cultures in the medium supplemented with dimethyl sulfoxide and also with reference substances: oxytetracycline (against bacteria), cycloheximide (against yeast) and nystatin (against fungi) (Sigma Aldrich).

[3] = tested on: Escherichia coli ATCC10536; assay: Microbial growth curve screening, E. coli; type: cell-based; settings: 0.1% (w/v); for ∆OD E. coli: OD at 560 nm, control 1.61
Method: as §2

[4] = tested on: Alternaria alternata CBS1526; assay: Microbial growth curve screening, A. alternata; type: cell-based; settings: 0.1% (w/v)
Method: as §2

[5] = tested on: Candida albicans DSM1386; assay: MIC evaluation (broth method), C. albicans; type: cell-based; settings: DSM1386, broth method, 48–72 h, read-out: Minimal inhibitory concentration C. albicans
Method: as §1

[6] = tested on: Aspergillus niger DSM1957; assay: Microbial growth curve screening, A. niger; type: cell-based; settings: 0.1% (w/v); for ∆OD A. niger: OD at 560 nm, control 2.14; for Lag-phase A. niger: control 11.0 h
Method: as §2

[7] = tested on: Fusarium linii KB-F1; assay: Microbial growth curve screening, F. linii; type: cell-based; settings: 0.1% (w/v); for ∆OD F. linii: OD at 560 nm, control 1.95; for Lag-phase F. linii: control 13.5 h
Method: as §2

[8] = tested on: Escherichia coli ATCC10536; assay: MIC evaluation (broth method), E. coli; type: cell-based; settings: 48–72 h, read-out: Minimal inhibitory concentration E. coli
Method: as §1

[9] = tested on: Aspergillus niger DSM1957; assay: MIC evaluation (broth method), A. niger; type: cell-based; settings: Aspergillus niger, DSM1957, 48–72 h, read-out: Minimal inhibitory concentration A. niger
Method: as §1

[10] = tested on: Alternaria alternata CBS1526; assay: MIC evaluation (broth method), A. alternata; type: cell-based; settings: Alternaria alternata, CBS1526, 48–72 h, read-out: Minimal inhibitory concentration A. alternata
Method: as §1

[11] = tested on: HT-29; assay: SRB antiproliferative assay, HT-29; type: cell-based, human; settings: Homo sapiens, HT-29; SRB, 48 h, 1–100 µg·mL^−1; ND = not detected in the tested concentration range
Method: (§3) Anticancer activity was evaluated using the sulforhodamine B assay (SRB) on four different human colon cancer cell lines: HT-29, LS180, LoVo and LoVo/DX and green monkey kidney fibroblasts COS7 (ATCC, Manassas, VA, USA). Cell lines HT-29 and COS7 were cultured in α-MEM medium (IIET PAS, Wrocław, Poland), LS180 in OptiMEM medium (IIET PAS), LoVo and LoVo/DX in mixture of α-MEM and OptiMEM medium (1:1 (v:v)). Each culture medium was supplemented with 10% fetal bovine serum, 2 mM glutamine, 100 μg·mL^−1 penicillin, 100 μg·mL^−1 streptomycin and 0.25 μg·mL^−1 amphotericin (all supplements purchased from Gibco (Paisley, UK). Cells were incubated at 37 °C, 5% CO2 in HeraCELL 150i incubator (Thermo Fisher Scientific, Waltham, MA, USA).
(§4) For the SRB assay, cells were seeded onto 96-well plates (Sarstedt, Nümbrecht, Germany) at a density of 5·10^3/well and cultured overnight as described above. Then, the growth medium was gently removed and replaced with fresh medium, supplemented with aminochalcone derivatives in the concentration ranging from 1 µg·mL^−1 to 100 µg·mL^−1. All stock solutions were prepared in DMSO at a concentration of 10 mg·mL^−1. Cells were incubated for 48 h and then the SRB assay was performed as described previously. Each experiment was performed in quadruplicate. The final results were reported as the IC50 values calculated for three independent experiments. Cisplatin (Acros Organics, Waltham, MA, USA) and doxorubicin (Fisher BioReagents, Waltham, MA, USA) were used as positive controls of the test.

[12] = tested on: LoVo/DX; assay: SRB antiproliferative assay, LoVo/DX; type: cell-based, human; settings: Homo sapiens, LoVo/DX, 48 h, 1–100 µg·mL^−1, ND = not detected in the tested concentration range
Method: as §3, §4

[13] = tested on: LS180; assay: SRB antiproliferative assay, LS180; type: cell-based, human; settings: Homo sapiens, LS180, 48 h, 1–100 µg·mL^−1, ND = not detected in the tested concentration range
Method: as §3, §4

[14] = tested on: Candida albicans DSM1386; assay: Microbial growth curve screening, C. albicans; type: cell-based; settings: 0.1% (w/v); for ∆OD C. albicans: OD at 560 nm, control 1.58; for Lag-phase C. albicans: control 3.0 h
Method: as §2

[15] = tested on: LoVo; assay: SRB antiproliferative assay, LoVo; type: cell-based, human; settings: Homo sapiens, LoVo, 48 h, 1–100 µg·mL^−1, ND = not detected in the tested concentration range
Method: as §3, §4

[16] = SRB assay, normal fibroblasts COS7; type: cell-based, green monkey; settings: green monkey, COS7 kidney fibroblasts (normal cell line), ND = not detected in the tested concentration range
Method: as §3, §4

[17] = tested on: Trichophyton rubrum; set-up: method as in doi:10.1007/s10600-018-2281-7; settings: cited from earlier work

Nc1ccccc1C(=O)/C=C/c1ccc(OCc2ccccc2)cc1 [Compound 13, 2′-Amino-4-benzyloxychalcone]
MIC [1]: 0.25 µg/mL (≈ 0.759 µM)
∆OD S. aureus [2]: 0
∆OD E. coli [3]: 0.0
∆OD A. alternata ([4]; OD at 560 nm, control 1.86): 0.92
Lag-phase A. alternata ([4]; control 16.5 h): 13.0 h
MIC [5]: 0.5 µg/mL (≈ 1.52 µM)
∆OD A. niger [6]: 0.78
Lag-phase A. niger [6]: 21.5 h
∆OD F. linii [7]: 0.32
Lag-phase F. linii [7]: 16.0 h
MIC [8]: 0.25 µg/mL (≈ 0.759 µM)

COc1cc(/C=C/C(=O)c2cccc(N)c2)ccc1OCc1ccccc1 [Compound 17, 3′-Amino-4-benzyloxy-3-methoxychalcone]
MIC [9]: 1 µg/mL (≈ 2.78 µM)
MIC [10]: 1 µg/mL (≈ 2.78 µM)
∆OD S. aureus [2]: 0.36
Lag-phase S. aureus [2]: 33.5 h
melting point: 38 °C
IC50 [11]: 2.9 ± 0.27 µg/mL (≈ 8.07 µM)
∆OD E. coli [3]: 0.0
IC50 [12]: 1.77 ± 0.09 µg/mL (≈ 4.92 µM)
IC50 [13]: 3.76 ± 0.38 µg/mL (≈ 10.5 µM)
∆OD C. albicans [14]: 0.55
Lag-phase C. albicans [14]: 9.0 h
∆OD F. linii [7]: 0.24
Lag-phase F. linii [7]: 11.0 h
MIC [8]: 0.125 µg/mL (≈ 0.348 µM)
IC50 [15]: 1.71 ± 0.13 µg/mL (≈ 4.76 µM)
IC50 at 48 h [16]: 3.45 ± 0.22 µg/mL (≈ 9.6 µM)

CCc1ccc(/C=C/C(=O)c2ccc(N)cc2)cc1 [Compound 6, 4′-Amino-4-ethylchalcone]
MIC [10]: 1 µg/mL (≈ 3.98 µM)
∆OD S. aureus [2]: 0.87
Lag-phase S. aureus [2]: 28.0 h
melting point: 125 °C
IC50 [11]: 3.61 ± 0.21 µg/mL (≈ 14.4 µM)
∆OD E. coli [3]: 0.16
Lag-phase E. coli ([3]; control 4.0 h): 3.5 h
IC50 [12]: 3.68 ± 0.3 µg/mL (≈ 14.6 µM)
IC50 [13]: 5.2 ± 0.3 µg/mL (≈ 20.7 µM)
∆OD C. albicans [14]: 0.44
Lag-phase C. albicans [14]: 9.5 h
∆OD A. niger [6]: 0.41
Lag-phase A. niger [6]: 36.5 h
∆OD F. linii [7]: 0.40
Lag-phase F. linii [7]: 9.0 h
IC50 [15]: 4.26 ± 0.19 µg/mL (≈ 16.9 µM)
IC50 at 48 h [16]: 7.16 ± 0.34 µg/mL (≈ 28.5 µM)

Nc1ccccc1C(=O)/C=C/c1ccc(C(=O)O)cc1 [Compound 7, 2′-Amino-4-carboxychalcone]
MIC [9]: 0.125 µg/mL (≈ 0.468 µM)
MIC [1]: 0.125 µg/mL (≈ 0.468 µM)
MIC [10]: 0.5 µg/mL (≈ 1.87 µM)
∆OD S. aureus [2]: 0.0
melting point: 188 to 191 °C
IC50 [11]: 4.26 ± 0.13 µg/mL (≈ 15.9 µM)
∆OD E. coli [3]: 0.0
IC50 [12]: 11.1 ± 0.44 µg/mL (≈ 41.5 µM)
IC50 [13]: 7.86 ± 0.35 µg/mL (≈ 29.4 µM)
MIC [5]: 0.125 µg/mL (≈ 0.468 µM)
∆OD F. linii [7]: 0.37
Lag-phase F. linii [7]: 26.0 h
MIC [8]: 0.125 µg/mL (≈ 0.468 µM)
IC50 [15]: 7.68 ± 0.34 µg/mL (≈ 28.7 µM)
IC50 at 48 h [16]: 7.78 ± 0.75 µg/mL (≈ 29.1 µM)

Nc1ccccc1C(=O)/C=C/c1cccc([N+](=O)[O-])c1 [2′-amino-3-nitro-chalcone]
MIC80 Trichophyton rubrum (literature) [17]: 0.5 µg/mL (≈ 1.86 µM)
